Measured values as given in patent publication US20100087476A1, “PHARMACEUTICAL COMPOUNDS” (Biovail Laboratories International (Barbados) S.R.L., priority 2008, published 2010).

How the values were obtained:
Type in all cases: in vivo, BALB/c mice
OVA-sensitised mice [1] = assay: Differential cell counts in bronchial lavage fluid (BAL), chicken ovalbumin parenteral sensitization model of asthma
Source text: (§1) An animal model of asthma was used in this study that included parenteral sensitisation of mice with chicken ovalbumin (OVA) together with a suitable adjuvant (Alum). Ovalbumin is widely used as an antigen as a result of its availability and ability to induce a good Th2-type immune response due to lack of any previous exposure to this antigen. Repeated aerosol exposure to ovalbumin post-sensitisation triggers airway changes leading to hyper-responsiveness, similar to that seen in asthma. These changes can be measured following challenge with a bronchoconstricting agent such as methacholine and analysed using whole body plethysmography. Pulmonary plethysmography is used to measure the functional residual capacity (FRC) of the lungs—the volume in the lungs when the muscles of respiration are relaxed—and total lung capacity. The degree of bronchochonstriction (BHR) can be expressed as enhanced pause (Pen H), a calculated value which correlates with measurement of airway resistance, impedance and intrapleural pressure in the same mouse.
In addition, allergy can by analysed by examination of changes in the lung and lung fluid. This can be achieved by histopathological analysis of lung tissue and analysis of the cellular infiltrate in bronchial lavage fluid (BAL). Further, additional markers of allergy such as the presence of cytokines associated with allergy, IL-4 and IL-13 can be analysed in the BAL fluid.
(§2) Groups of 8 BALB/c mice aged between 5 and 8 weeks of age were sensitised by i.p. (intraperitoneal) injection with ovalalbumin (OVA) in alum on days 0 and 14 (except Group A). All animals were challenged by aerosol exposure to 5% OVA for 20 minutes daily from days 18 to 23. Treatments were given by oral gavage twice daily from day 14 to day 24. At termination (day 24), all animals were subjected to unrestrained whole body plethysmography (whole-body plethysmograph Buxco Electronics, Troy, US) during exposure to increasing doses of methacholine leading to bronchoconstriction and hyper-responsiveness. These changes can be measured using the Buxco software to determine the PenH values for each animal. BAL fluids were collected and cytospins prepared and counted differentially for the presence of infiltrating cells. The supernatant from the BAL was retained and stored at ^−80° C. for possible cytokine analysis. […]
Mice were terminated by i.p. injection of euthatal, the trachea exposed and cells obtained from the lungs by performing bronchoalveolar lavage, 3×0.4 ml with PBS. The lavage was pooled, cells counted using a nucleocounter, pelletted and resuspended at 5×10^5 cells per ml. […]
A minimum of 5 areas were counted on each slide. Each cell type was counted and percentage cell numbers determined From this the number of cells/BAL was determined.

OVA-sensitised mice [2] = assay: Lung histopathology scores (pulmonary inflammation), chicken ovalbumin parenteral sensitization model of asthma; settings: 1 to 20 mg/kg twice daily oral gavage; probable dose-effect
Protocol: Groups of 8 BALB/c mice aged between 5 and 8 weeks of age were sensitised by i.p. (intraperitoneal) injection with ovalalbumin (OVA) in alum on days 0 and 14 (except Group A). All animals were challenged by aerosol exposure to 5% OVA for 20 minutes daily from days 18 to 23. Treatments were given by oral gavage twice daily from day 14 to day 24. At termination (day 24), all animals were subjected to unrestrained whole body plethysmography (whole-body plethysmograph Buxco Electronics, Troy, US) during exposure to increasing doses of methacholine leading to bronchoconstriction and hyper-responsiveness. These changes can be measured using the Buxco software to determine the PenH values for each animal. BAL fluids were collected and cytospins prepared and counted differentially for the presence of infiltrating cells. The supernatant from the BAL was retained and stored at ^−80° C. for possible cytokine analysis. Further, lungs were removed and placed in 10% buffered formalin for possible histopathology. […] The HE-stained sections were assessed for lung inflammation. Each lung was scored as described below. Samples were scored in blinded fashion, without knowledge of the experimental protocol or identity of groups. A semi-quantitative grading system was used to describe the degree of inflammatory change in the lungs. Descriptive comments (nature of cellular infiltration) were also recorded. […]

OVA-sensitised mice [3] = assay: Unrestrained whole body plethysmography (PenH) during methacholine exposure, chicken ovalbumin parenteral sensitization model of asthma
Source text: as §1
Pen H is calculated from the relationship Pen H=(Te/Tr−1)×(Pef/Pif) where;
as §2

[4] = across 1, 10 and 20 mg/kg twice daily oral gavage, day 14-24
[5] = highest dose, 20 mg/kg twice daily oral gavage (Group E)
[6] = two lower doses (1 and 10 mg/kg twice daily oral gavage, Groups C and D)

Compound: COc1cc2c(cc1OC)[C@H]1C[C@H](O)[C@@H](CC(C)C)CN1CC2 (single isomer, unassigned) [Isomer B]
- levels of eosinophil infiltration into the lung (OVA-sensitised mice [1]; [4]): dose dependent effect
- effect on lung cell infiltration (OVA-sensitised mice [1]; [5]): small
- eosinophil numbers in the BAL (OVA-sensitised mice [1]; [5]): associated reduction in eosinophil numbers in the BAL
- levels of eosinophil infiltration into the lung (OVA-sensitised mice [1]; [6]): no clear difference between treated and untreated animals
- lung pathology (mean group histopathological score) (OVA-sensitised mice [2]): significant amelioration of pathology
- PenH response to methacholine (OVA-sensitised mice [3]; [4]): dose dependent effect
- airway hyper-responsiveness (PenH) (OVA-sensitised mice [3]; [5]): reduced airway hyper-responsiveness to levels just above those of the budesonide controls
- PenH response to methacholine (OVA-sensitised mice [3]; [6]): no clear difference between treated and untreated animals
